# According to ChEMBL document CHEMBL4823303, “Discovery of Small Molecule Entry Inhibitors Targeting the Fusion Peptide of SARS-CoV-2 Spike Protein” (ACS Med Chem Lett, 2021):
# pIC50: −log10 of the molar value.
# Tests used:
# [1] = Cytotoxicity against African green monkey Vero E6 cells expressing ACE2 cells assessed as reduction in cell viability relative to control; details: chlorocebus sabaeus
# [2] = tested on: Vesicular stomatitis virus; assay: microbe, parasite or virus in culture; assay type: functional, organism-based; details: for pIC50: Vesicular stomatitis virus, read-out: IC50
# HEK293 = assay: Cytotoxicity against HEK293 cells expressing ACE2 cells assessed as reduction in cell viability; details: Homo sapiens
# Vero C1008 = assay: Cytotoxicity against African green monkey Vero E6 cells expressing ACE2 cells assessed as reduction in cell viability; details: Chlorocebus sabaeus
# SARS-CoV-2 [3] = assay: Antiviral activity against pseudovirus SARS-CoV-2 spike protein infected in HEK293 cells expressing ACE2 assessed as reduction in pseudotyped particle entry incubated for 48 hrs incubation by luminescence assay; assay type: functional, organism-based; details: Severe acute respiratory syndrome coronavirus 2, HEK293, 48 h
# SARS-CoV-2 [4] = assay: Antiviral activity against pseudovirus SARS-CoV-2 spike protein infected in HEK293 cells expressing ACE2 assessed as reduction in pseudotyped particle entry incubated for 48 hrs incubation by luminescence assay relative to control; assay type: functional, Severe acute respiratory syndrome coronavirus 2
# SARS-CoV-2 [5] = assay: microbe, parasite or virus in culture; assay type: functional, organism-based, Vero E6; details: Severe acute respiratory syndrome coronavirus 2, Vero C1008, 72 h
# [6] = Cytotoxicity against HEK293 cells expressing ACE2 cells assessed as reduction in cell viability relative to control; details: human
# SARS-CoV-2 [7] = assay type: functional, Severe acute respiratory syndrome coronavirus 2, Vero E6; details: time 72 hrs
# SARS-CoV = assay: microbe, parasite or virus in culture; assay type: functional, organism-based; details: Severe acute respiratory syndrome-related coronavirus, Huh-7, 24 h
compound,measurement,setting,value
CC(Nc1nc(N2CCOCC2)nc2ccccc12)c1ccccc1 (configuration not stated),Emax,[1],23%
same,pIC50,[2],< 4.24
same,pIC50,HEK293,< 4.24
same,pIC50,Vero C1008,< 4.70
same,pIC50,SARS-CoV-2 [3],4.65
same,Efficacy,SARS-CoV-2 [4],94.1%
same,pIC50,SARS-CoV-2 [5],< 4.70
same,Emax,[6],25.1%
C[C@H](Nc1nc(N2CCNCC2)nc2ccccc12)c1ccccc1,Emax,[1],0%
same,pIC50,[2],< 4.24
same,pIC50,HEK293,< 4.24
same,pIC50,Vero C1008,< 4.70
same,pIC50,SARS-CoV-2 [3],4.80
same,Efficacy,SARS-CoV-2 [4],94.3%
same,Emax,[6],0%
same,Efficacy,SARS-CoV-2 [7],87.8%
CC(Nc1nc(N2CCC(=O)CC2)nc2ccccc12)c1ccccc1 (configuration not stated),Emax,[1],0%
same,pIC50,[2],< 4.24
same,pIC50,HEK293,< 4.24
same,pIC50,SARS-CoV-2 [3],4.50
same,Efficacy,SARS-CoV-2 [4],100%
same,pIC50,SARS-CoV-2 [5],4.89
same,Emax,[6],0%
same,Efficacy,SARS-CoV-2 [7],48.5%
CC(Nc1nc(N2CCNCC2)nc2ccccc12)c1c(F)cccc1F (configuration not stated),Emax,[1],12.8%
same,pIC50,[2],< 4.24
same,pIC50,HEK293,< 4.24
same,pIC50,SARS-CoV-2 [3],4.65
same,Efficacy,SARS-CoV-2 [4],88.9%
same,pIC50,SARS-CoV,5.78
same,pIC50,SARS-CoV-2 [5],4.85
same,Emax,[6],0%
same,Efficacy,SARS-CoV-2 [7],79.9%
CC(Nc1nc(N2CCNCC2)nc2cc(Br)ccc12)c1ccccc1 (configuration not stated),Emax,[1],91.5%
same,pIC50,[2],5.10
same,pIC50,HEK293,4.40
same,pIC50,Vero C1008,4.85
same,pIC50,SARS-CoV-2 [3],5.05
same,Efficacy,SARS-CoV-2 [4],97.1%
same,pIC50,SARS-CoV-2 [5],5.10
same,Emax,[6],72.1%
same,Efficacy,SARS-CoV-2 [7],139.9%
CC(Nc1nc(N2CCNCC2)nc2ccc(F)cc12)c1ccccc1 (configuration not stated),Emax,[1],11.8%
same,pIC50,[2],< 4.24
same,pIC50,HEK293,< 4.24
same,pIC50,Vero C1008,< 4.70
same,pIC50,SARS-CoV-2 [3],4.80
same,Efficacy,SARS-CoV-2 [4],70.6%
same,pIC50,SARS-CoV-2 [5],5.10
same,Emax,[6],0%
same,Efficacy,SARS-CoV-2 [7],101.3%
CC(Nc1nc(N2CCNCC2)nc2ccccc12)c1ccccc1N (configuration not stated),Emax,[1],0%
same,pIC50,[2],4.40
same,pIC50,HEK293,< 4.24
same,pIC50,Vero C1008,< 4.70
same,Efficacy,SARS-CoV-2 [4],70.2%
same,pIC50,SARS-CoV-2 [5],4.90
same,Emax,[6],0%
same,Efficacy,SARS-CoV-2 [7],31.5%
CC(Nc1nc(N2CCNCC2)nc2cc(-c3ccccc3)ccc12)c1ccccc1 (configuration not stated),Emax,[1],116%
same,pIC50,[2],4.45
same,pIC50,HEK293,4.40
same,pIC50,Vero C1008,5.10
same,pIC50,SARS-CoV-2 [3],4.90
same,pIC50,SARS-CoV-2 [5],5.35
same,Emax,[6],96.7%
same,Efficacy,SARS-CoV-2 [7],79%
CC(Nc1nc(N2CCNCC2)nc2ccc(-c3ccccc3)cc12)c1ccccc1 (configuration not stated),Emax,[1],88.5%
same,pIC50,[2],< 4.24
same,pIC50,HEK293,< 4.24
same,pIC50,Vero C1008,4.85
same,pIC50,SARS-CoV-2 [3],4.80
same,Efficacy,SARS-CoV-2 [4],100%
same,pIC50,SARS-CoV-2 [5],5.10
same,Emax,[6],20.8%
same,Efficacy,SARS-CoV-2 [7],81.6%
CN1CCC[C@@H]1CCO[C@](C)(c1ccccc1)c1ccc(Cl)cc1.O=C(O)/C=C/C(=O)O [CLEMASTINE FUMARATE],IC50,[2],Not Active
